Results from ChEMBL document CHEMBL5131564, “Discovery of Potent and Selective Receptor-Interacting Serine/Threonine Protein Kinase 2 (RIPK2) Inhibitors for the Treatment of Inflammatory Bowel Diseases (IBDs)” (J Med Chem, 2022).
pIC50, pKd: −log10 of the molar value. The source made the active and inactive calls. No cut-off for these calls is given here.

Columns and labels:
[1] = Volume of distribution in Balb/C mouse at 10 mg/kg, po measured upto 48 hrs by LC-MS/MS analysis; type: ADME, organism-based; settings: in vivo
[2] = target: Receptor-interacting serine/threonine-protein kinase 3 (Homo sapiens, UniProt Q9Y572); experiment: Binding affinity to human RIPK3 in human Jurkat cells; type: cell-based
Receptor-interacting serine/threonine-protein kinase 3, sequence (Q9Y572 whole entry): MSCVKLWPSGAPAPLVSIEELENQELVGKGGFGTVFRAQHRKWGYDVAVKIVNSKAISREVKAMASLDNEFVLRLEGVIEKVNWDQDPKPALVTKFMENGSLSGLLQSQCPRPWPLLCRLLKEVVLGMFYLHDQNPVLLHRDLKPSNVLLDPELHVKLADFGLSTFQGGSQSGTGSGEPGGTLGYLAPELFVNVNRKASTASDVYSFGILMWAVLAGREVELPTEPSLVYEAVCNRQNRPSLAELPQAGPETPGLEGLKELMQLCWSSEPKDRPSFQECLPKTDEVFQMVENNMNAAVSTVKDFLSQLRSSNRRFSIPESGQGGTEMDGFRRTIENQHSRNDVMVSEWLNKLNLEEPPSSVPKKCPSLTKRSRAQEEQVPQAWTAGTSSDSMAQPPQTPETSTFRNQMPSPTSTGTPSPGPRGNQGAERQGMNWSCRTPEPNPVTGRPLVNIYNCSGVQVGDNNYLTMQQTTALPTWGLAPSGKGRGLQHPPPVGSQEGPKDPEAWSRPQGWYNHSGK

[3] = AUC (0 to t) in Balb/C mouse at 10 mg/kg, iv measured upto 48 hrs by LC-MS/MS analysis; type: ADME, organism-based; set-up: time < 48 hrs, dose 10 mg/kg, route iv; settings: in vivo
[4] = target: Proto-oncogene tyrosine-protein kinase Src (Homo sapiens, UniProt P12931); experiment: Inhibition of human c-SRC by kinase assay
Proto-oncogene tyrosine-protein kinase Src, sequence (P12931 2-536 limits assumed): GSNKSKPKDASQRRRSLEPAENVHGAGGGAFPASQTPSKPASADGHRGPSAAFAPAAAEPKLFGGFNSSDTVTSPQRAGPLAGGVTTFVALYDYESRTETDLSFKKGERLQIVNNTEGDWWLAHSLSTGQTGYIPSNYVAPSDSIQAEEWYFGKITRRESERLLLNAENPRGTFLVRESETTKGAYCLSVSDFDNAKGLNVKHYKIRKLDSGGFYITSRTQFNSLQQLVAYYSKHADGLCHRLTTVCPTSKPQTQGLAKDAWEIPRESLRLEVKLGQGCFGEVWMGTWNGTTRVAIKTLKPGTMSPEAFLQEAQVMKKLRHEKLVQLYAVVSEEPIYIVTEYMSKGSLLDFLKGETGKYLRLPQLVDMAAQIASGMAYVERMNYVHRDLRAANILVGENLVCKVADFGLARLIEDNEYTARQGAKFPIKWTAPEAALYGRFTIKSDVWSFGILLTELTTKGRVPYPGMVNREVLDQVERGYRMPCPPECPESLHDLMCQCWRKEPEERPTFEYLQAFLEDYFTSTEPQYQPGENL

[5] = Drug uptake in DSS-induced acute ulcerative colitis C57BL/6 mouse model assessed as drug concentration in colon at 20 mg/kg, po after 0.5 hrs; type: ADME, organism-based; settings: read-out: Drug uptake
[6] = tested on: Mus musculus; experiment: Anti-inflammatory activity against DSS-induced acute ulcerative colitis C57BL/6 mouse model assessed as recovery of weight loss at 20 mg/kg, po for 6 consecutive days; type: functional, organism-based
[7] = AUC (0 to t) in Balb/C mouse at 10 mg/kg, po measured upto 48 hrs by LC-MS/MS analysis; type: ADME, organism-based; set-up: time < 48 hrs, dose 10 mg/kg, route po; settings: in vivo
[8] = tested on: RAW264.7; experiment: Cytotoxicity against mouse RAW264.7 cells at 62.5 to 250 nM in presence of NOD measured after 24 hrs by propidium iodide staining based flow cytometry; type: toxicity, cell-based; settings: raw264.7, 24 h, 0.25 µM, dose 62.5-250 nM
[9] = Toxicity in rat H9c2 cells assessed as inhibitory rate; type: cell-based
[10] = tested on: Mus musculus; experiment: Anti-inflammatory activity against DSS-induced acute ulcerative colitis C57BL/6 mouse model assessed as recovery of body weight at 20 to 40 mg/kg, po once a day measured after 2 days followed by 7 days after DSS treatment; type: functional, organism-based; settings: dose 20-40 mg/kg, time 2.0 day
[11] = Inhibition of LPS/MDP-stimulated TNFalpha production in C57BL/6J mouse BMDM cells by ELISA relative to control; type: functional, cell-based
[12] = tested on: Mus musculus; experiment: Anti-inflammatory activity against DSS-induced acute ulcerative colitis C57BL/6 mouse model assessed as reduction in watery stools at 20 to 40 mg/kg, po once a day measured after 2 days followed by 7 days after DSS treatment; type: functional, organism-based; settings: dose 20-40 mg/kg, time 2.0 day
[13] = tested on: BMDM; experiment: Cytotoxicity against mouse BMDM cells at 62.5 to 250 nM in presence of NOD; type: toxicity, cell-based; settings: 0.25 µM, dose 62.5-250 nM
[14] = target: Serine/threonine-protein kinase SIK1 (Homo sapiens, UniProt P57059); experiment: Inhibition of human SIK by kinase assay
Serine/threonine-protein kinase SIK1, sequence (P57059 whole entry): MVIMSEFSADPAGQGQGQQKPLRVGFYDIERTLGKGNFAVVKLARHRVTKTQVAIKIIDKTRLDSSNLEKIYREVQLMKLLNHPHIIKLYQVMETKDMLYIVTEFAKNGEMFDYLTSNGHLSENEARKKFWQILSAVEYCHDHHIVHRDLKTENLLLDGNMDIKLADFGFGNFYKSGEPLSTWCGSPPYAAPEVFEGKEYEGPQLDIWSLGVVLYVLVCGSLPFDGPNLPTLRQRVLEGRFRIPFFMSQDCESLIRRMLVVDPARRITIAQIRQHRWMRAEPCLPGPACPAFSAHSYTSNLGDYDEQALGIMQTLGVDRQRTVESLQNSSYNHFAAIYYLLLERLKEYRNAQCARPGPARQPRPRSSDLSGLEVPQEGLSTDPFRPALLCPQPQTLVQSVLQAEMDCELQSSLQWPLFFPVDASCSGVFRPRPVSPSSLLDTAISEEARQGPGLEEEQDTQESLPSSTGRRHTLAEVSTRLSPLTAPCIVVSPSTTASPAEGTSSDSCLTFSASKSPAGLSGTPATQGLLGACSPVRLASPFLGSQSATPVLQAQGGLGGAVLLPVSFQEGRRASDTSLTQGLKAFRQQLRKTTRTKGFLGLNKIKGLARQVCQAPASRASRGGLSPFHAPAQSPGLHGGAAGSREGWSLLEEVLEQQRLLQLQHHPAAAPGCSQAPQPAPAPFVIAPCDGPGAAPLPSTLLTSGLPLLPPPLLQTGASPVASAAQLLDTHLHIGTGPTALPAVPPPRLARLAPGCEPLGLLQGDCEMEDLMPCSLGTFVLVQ

[15] = target: T1, Receptor-interacting serine/threonine-protein kinase 4 (Homo sapiens, UniProt P57078); experiment: Binding affinity to human RIPK4
T1 sequence (P57078 whole entry): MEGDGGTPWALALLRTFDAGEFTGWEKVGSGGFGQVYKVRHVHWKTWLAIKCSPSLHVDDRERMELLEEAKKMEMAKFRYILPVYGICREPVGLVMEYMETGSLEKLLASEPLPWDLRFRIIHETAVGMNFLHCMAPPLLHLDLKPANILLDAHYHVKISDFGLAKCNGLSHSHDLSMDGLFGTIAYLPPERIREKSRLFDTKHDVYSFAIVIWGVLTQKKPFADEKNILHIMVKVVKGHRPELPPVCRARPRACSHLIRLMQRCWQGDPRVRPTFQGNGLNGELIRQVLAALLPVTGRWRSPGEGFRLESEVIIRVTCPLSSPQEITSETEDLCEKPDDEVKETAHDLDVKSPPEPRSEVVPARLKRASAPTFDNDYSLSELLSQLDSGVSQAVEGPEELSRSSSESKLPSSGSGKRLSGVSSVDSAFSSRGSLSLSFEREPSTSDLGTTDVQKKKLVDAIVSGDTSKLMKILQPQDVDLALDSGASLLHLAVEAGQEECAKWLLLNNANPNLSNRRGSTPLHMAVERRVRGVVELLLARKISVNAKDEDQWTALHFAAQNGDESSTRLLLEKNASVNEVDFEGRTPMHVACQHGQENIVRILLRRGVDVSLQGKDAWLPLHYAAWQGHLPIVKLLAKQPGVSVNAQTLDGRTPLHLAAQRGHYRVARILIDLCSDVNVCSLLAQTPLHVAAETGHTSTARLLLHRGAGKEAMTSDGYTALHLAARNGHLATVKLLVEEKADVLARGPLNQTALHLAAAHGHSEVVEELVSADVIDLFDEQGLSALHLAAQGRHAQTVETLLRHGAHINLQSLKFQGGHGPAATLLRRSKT

[16] = tested on: RAW264.7; experiment: Inhibition of MDP-stimulated TNFalpha production in mouse RAW264.7 cells assessed as TNFalpha mRNA level upto 50 nM incubated for 22 hrs by real-time PCR analysis; type: functional, cell-based
[17] = target: T2, Receptor-interacting serine/threonine-protein kinase 1 (Homo sapiens, UniProt Q13546); experiment: Inhibition of human RIPK1 by kinase assay
T2 sequence (Q13546 whole entry): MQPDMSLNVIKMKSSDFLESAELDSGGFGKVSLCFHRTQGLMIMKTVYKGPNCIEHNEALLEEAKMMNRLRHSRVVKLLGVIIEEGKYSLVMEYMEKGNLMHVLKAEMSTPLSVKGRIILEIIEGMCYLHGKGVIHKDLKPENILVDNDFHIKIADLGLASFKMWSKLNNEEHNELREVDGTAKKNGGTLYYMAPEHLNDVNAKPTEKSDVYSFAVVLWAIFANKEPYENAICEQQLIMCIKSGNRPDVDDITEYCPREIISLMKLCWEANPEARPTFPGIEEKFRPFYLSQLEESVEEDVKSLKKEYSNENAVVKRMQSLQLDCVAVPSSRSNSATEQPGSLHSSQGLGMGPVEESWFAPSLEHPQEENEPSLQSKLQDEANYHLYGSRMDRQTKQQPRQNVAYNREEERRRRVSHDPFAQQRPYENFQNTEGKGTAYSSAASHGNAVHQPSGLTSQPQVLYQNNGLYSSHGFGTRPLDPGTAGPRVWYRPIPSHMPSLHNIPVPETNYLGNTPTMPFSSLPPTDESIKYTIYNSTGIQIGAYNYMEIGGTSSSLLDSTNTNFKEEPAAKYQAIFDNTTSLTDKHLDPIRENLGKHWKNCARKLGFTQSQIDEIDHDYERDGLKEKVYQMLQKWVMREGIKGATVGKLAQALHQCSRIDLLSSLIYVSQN

Vd [1]: 333.24 L/kg | pKd [2]: 7.13 | AUC(0-t) at 48 h [3]: 1000 ng·h/mL | pIC50 [4]: 7.25 | AUC(0-t) at 48 h [7]: 151 ng·h/mL | pIC50 [11]: 9.52 | pIC50 [14]: 7.05 | pKd [15]: 5.64 | pIC50 [17]: < 4.52
SMILES: Cc1ccc(-c2cn([C@H]3CC[C@@H](N)CC3)c3ncnc(N)c23)c(F)c1
concentration at 0.5 h [5]: 3620 ng/g | Activity [6]: Active | Activity [8]: Non-Toxic | pIC50 [9]: 4.91 | Activity [10]: Active | Activity [12]: Active | Activity [13]: Non-Toxic | inhibition [16]: Active
